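Step 1: Grow cells in 96-well plates. Step 2: Expose to compound for 48 hours at 5 concentrations. Step 3: Interpolate endpoints linearly; if unreached, use highest concentration. At the GI50, growth is halved. TGI: concentration producing complete growth inhibition.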
How the values were obtained:
Assay in all cases: NCI-60 cell line screen, 48 h
[1] = tested on: 786-0 renal
[2] = tested on: BT-549 breast
[3] = tested on: CAKI-1 renal
[4] = tested on: HL-60(TB) leukemia
[5] = tested on: HOP-92 NSCLC
[6] = tested on: HS 578T breast
[7] = tested on: IGROV1 ovarian
[8] = tested on: MDA-MB-231 breast
[9] = tested on: NCI-H23 lung
[10] = tested on: OVCAR-4 ovarian
[11] = tested on: OVCAR-8 ovarian
[12] = tested on: PC-3 prostate
[13] = tested on: RPMI-8226 leukemia
[14] = tested on: SF-295 CNS
[15] = tested on: SK-MEL-2 melanoma
[16] = tested on: SK-OV-3 ovarian
[17] = tested on: TK-10 renal
[18] = tested on: A498 renal
[19] = tested on: A549 NSCLC
[20] = tested on: ACHN renal
[21] = tested on: CCRF-CEM leukemia
[22] = tested on: COLO 205 colon
[23] = tested on: DU-145 prostate
[24] = tested on: HCC-2998 colon
[25] = tested on: HCT-116 colon
[26] = tested on: HCT-15 colon
[27] = tested on: HOP-62 NSCLC
[28] = tested on: HT29 colon
[29] = tested on: K-562 leukemia
[30] = tested on: KM12 colon
[31] = tested on: LOX IMVI melanoma
[32] = tested on: M14 melanoma
[33] = tested on: MALME-3M melanoma
[34] = tested on: MCF7 breast
[35] = tested on: MOLT-4 leukemia
[36] = tested on: NCI-H226 lung
[37] = tested on: NCI-H460 lung
[38] = tested on: NCI-H522 lung
[39] = tested on: NCI/ADR-RES ovarian
[40] = tested on: OVCAR-3 ovarian
[41] = tested on: OVCAR-5 ovarian
[42] = tested on: RXF 393 renal
[43] = tested on: SF-268 CNS
[44] = tested on: SF-539 CNS
[45] = tested on: SK-MEL-28 melanoma
[46] = tested on: SK-MEL-5 melanoma
[47] = tested on: SN12C renal
[48] = tested on: SNB-19 CNS
[49] = tested on: SNB-75 CNS
[50] = tested on: SR leukemia
[51] = tested on: SW-620 colon
[52] = tested on: T-47D breast
[53] = tested on: U251 CNS
[54] = tested on: UACC-257 melanoma
[55] = tested on: UACC-62 melanoma
[56] = tested on: UO-31 renal

`CCN(CC)c1ccc2nc3ccc(N=Nc4ccc(N(C)C)cc4)cc3[n+](-c3ccccc3)c2c1` showed a GI50 [1] of 0.247 µM, a TGI [1] of 2.39 µM and a GI50 [2] of 0.424 µM. The TGI [2] was 2.57 µM, the GI50 [3] was 0.146 µM and the TGI [3] was 0.434 µM. For the same compound, the GI50 [4] was 0.0739 µM, the TGI [4] was 0.89 µM and the GI50 [5] was 0.17 µM. For the same compound, the TGI [5] was 0.811 µM, the GI50 [6] was 0.448 µM and the TGI [6] was greater than 100 µM. For the same compound, the GI50 [7] was 0.0934 µM, the TGI [7] was 1.53 µM and the GI50 [8] was 0.0831 µM. For the same compound, the TGI [8] was 0.426 µM, the GI50 [9] was 0.0809 µM and the TGI [9] was 1.37 µM. It also gave a GI50 [10] of 0.0243 µM, a TGI [10] of 0.0929 µM and a GI50 [11] of 0.11 µM. It also gave a TGI [11] of 1.48 µM, a GI50 [12] of 0.156 µM and a TGI [12] of 2.56 µM. The GI50 [13] was 0.0314 µM, the TGI [13] was 1.35 µM and the GI50 [14] was 0.0376 µM. The TGI [14] was 0.191 µM, the GI50 [15] was 0.369 µM and the TGI [15] was 2.05 µM. For the same compound, the GI50 [16] was 0.39 µM, the TGI [16] was 13.7 µM and the GI50 [17] was 0.389 µM. It also gave a TGI [17] of 2.1 µM.

For `O=C1Nc2ccc(Br)cc2C12CC(c1ccccc1)=NN2` (configuration not stated), the GI50 [1] was 5.66 µM, the TGI [1] was 48.5 µM and the GI50 [18] was 2.24 µM. The TGI [18] was 8.38 µM, the GI50 [19] was 4.53 µM and the TGI [19] was greater than 100 µM. For the same compound, the GI50 [20] was 7.96 µM, the TGI [20] was greater than 100 µM and the GI50 [2] was 13 µM. It also gave a TGI [2] of 74.3 µM, a GI50 [3] of 2.8 µM and a TGI [3] of 16.6 µM. It also gave a GI50 [21] of 3.67 µM, a TGI [21] of 37.7 µM and a GI50 [22] of 3.79 µM. The TGI [22] was 15.2 µM, the GI50 [23] was 3.35 µM and the TGI [23] was 16.4 µM. For the same compound, the GI50 [24] was 15.9 µM, the TGI [24] was 65.1 µM and the GI50 [25] was 4.27 µM. It also gave a TGI [25] of 17 µM, a GI50 [26] of 3.56 µM and a TGI [26] of 48.8 µM. For the same compound, the GI50 [4] was 2.77 µM, the TGI [4] was 8.47 µM and the GI50 [27] was 6.17 µM. It also gave a TGI [27] greater than 100 µM, a GI50 [5] of 1.66 µM and a TGI [5] of 26.2 µM. It also gave a GI50 [28] of 4.08 µM, a TGI [28] of 13 µM and a GI50 [7] of 3.51 µM. It also gave a TGI [7] of 29.3 µM, a GI50 [29] of 2.84 µM and a TGI [29] of 31 µM. For the same compound, the GI50 [30] was 3.86 µM, the TGI [30] was 38.8 µM and the GI50 [31] was 7.21 µM. The TGI [31] was 22.9 µM, the GI50 [32] was 3.25 µM and the TGI [32] was greater than 100 µM. It also gave a GI50 [33] of 2.04 µM, a TGI [33] of 6.93 µM and a GI50 [34] of 2.48 µM. It also gave a TGI [34] of 64.5 µM, a GI50 [8] of 6.19 µM and a TGI [8] of 29.5 µM. For the same compound, the GI50 [35] was 5.04 µM, the TGI [35] was 30.5 µM and the GI50 [36] was 6.93 µM. It also gave a TGI [36] greater than 100 µM, a GI50 [9] of 5.43 µM and a TGI [9] of 77.2 µM. It also gave a GI50 [37] of 3.76 µM, a TGI [37] of 19.4 µM and a GI50 [38] of 3.56 µM. The TGI [38] was 9.43 µM, the GI50 [39] was 3.89 µM and the TGI [39] was 35.8 µM. The GI50 [40] was 3.26 µM, the TGI [40] was 13.9 µM and the GI50 [10] was 5.31 µM. The TGI [10] was 77.6 µM, the GI50 [41] was 16.7 µM and the TGI [41] was greater than 100 µM. For the same compound, the GI50 [11] was 5.7 µM, the TGI [11] was 39.2 µM and the GI50 [12] was 2.28 µM. It also gave a TGI [12] of 18.4 µM, a GI50 [13] of 3.07 µM and a TGI [13] of 12.2 µM. For the same compound, the GI50 [42] was 2.14 µM, the TGI [42] was 6.05 µM and the GI50 [43] was 9.25 µM. It also gave a TGI [43] greater than 100 µM, a GI50 [14] of 2.77 µM and a TGI [14] of 9.5 µM. The GI50 [44] was 2.1 µM, the TGI [44] was 6.02 µM and the GI50 [15] was 4.48 µM. The TGI [15] was 25.6 µM, the GI50 [45] was 7.48 µM and the TGI [45] was greater than 100 µM. The GI50 [46] was 3.2 µM, the TGI [46] was 14.1 µM and the GI50 [16] was 4.44 µM. It also gave a TGI [16] of 87.3 µM, a GI50 [47] of 6.8 µM and a TGI [47] of 51.2 µM. It also gave a GI50 [48] of 9.25 µM, a TGI [48] greater than 100 µM and a GI50 [49] of 1.35 µM. The TGI [49] was 6.91 µM, the GI50 [50] was 2.88 µM and the TGI [50] was 19.5 µM. It also gave a GI50 [51] of 3.87 µM, a TGI [51] of 23.8 µM and a GI50 [52] of 5.48 µM. It also gave a TGI [52] greater than 100 µM, a GI50 [53] of 3.84 µM and a TGI [53] of 19.2 µM. The GI50 [54] was 5.98 µM, the TGI [54] was greater than 100 µM and the GI50 [55] was 5.38 µM. For the same compound, the TGI [55] was 27.1 µM, the GI50 [56] was 4.46 µM and the TGI [56] was greater than 100 µM.

— PubChem BioAssay (NCI)
